Assay results: patent EP4772500A1, “NOVEL ISOXAZOLE COMPOUND AS TM4SF5-SPECIFIC INHIBITOR AND USE THEREOF” (Seoul National University R&DB Foundation, priority 2023, dated 2025)
Where “and” joins values, the source holds several entries; their conditions need not be identical. Identical values can stand only once.

Biological target: T1, HA-TM4SF5 obtained from Huh7KO-HA-TM4SF5 (Homo sapiens, UniProt O14894)
T1 construct: expressed in transfected cells; host or cells: Huh7KO (TM4SF5 knockout Huh7) stably infected with pBabe-HA-TM4SF5 retrovirus; captured with anti-HA antibody
T1 sequence (O14894 1-197): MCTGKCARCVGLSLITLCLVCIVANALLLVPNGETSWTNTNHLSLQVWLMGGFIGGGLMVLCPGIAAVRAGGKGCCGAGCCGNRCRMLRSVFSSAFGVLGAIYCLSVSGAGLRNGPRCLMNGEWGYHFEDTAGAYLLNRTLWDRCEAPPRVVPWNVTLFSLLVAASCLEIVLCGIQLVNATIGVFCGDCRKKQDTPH
Assay: Binding of 14C-labelled ST-5-002 to pulled-down HA-TM4SF5
Procedure: For Huh7KO cells, stable cell lines were established by infecting with a retrovirus inducing the expression of pBabe-HA-EV or pBabe-HA-TM4SF5. Cell extracts were obtained, and extracts containing 0.2 or 0.25 mg of protein were reacted with an anti-HA antibody and HA-tagged TM4SF5, or with streptavidin agarose resin for Strep-PD-L1 or Strep-TM4SF5 at 4°C for 2 hours for pulldown. Subsequently, in the presence or absence of cold ST-5-002 (400 µM), the samples were treated with ^14C-labelled ST-5-002 (10 or 25 µM) and reacted at 4°C for 1 hour, after which radioactive isotope values were repeatedly measured using a TriCarb scintillation counter (PerkinElmer, Waltham, MA).
After culturing HEK293FT cells transfected with Strep-EV or Strep-TM4SF5 expression vectors, or Huh7KO cells stably expressing pBabe-HA-EV or pBabe-HA-TM4SF5, cell extracts were obtained. […] The pulled-down proteins were treated with ^14C-labelled ST-5-002 at various concentrations (10 nM, 100 nM, 1 µM, 5 µM, 10 µM, 50 µM) and reacted at 4°C for 1 hour, after which radioactive isotope values were repeatedly measured using a TriCarb scintillation counter (PerkinElmer, Waltham, MA). The EC50 was calculated by normalizing the average radioactive isotope value of TM4SF5 obtained through the measurements by dividing it by the average value of EV. […]

EC50 (14C-labelled ST-5-002, HA-TM4SF5, 4°C, 1 hour (FIG. 19b)): 850 nM and 875 nM | binding of 14C-labelled ST-5-002 to HA-TM4SF5 (simultaneous treatment with cold ST-5-002 (400 µM) (FIG. 19b)): decreased
SMILES: Cc1ccc(C(=O)Nc2ccc(-c3cc(-c4ccc(O)cc4)no3)cc2)cc1 [ST-5-002, N-(4-(3-(4-hydroxyphenyl)isoxazole-5-yl)phenyl)-4-methylbenzamide]
